Measurements: patent US20100130581A1, “COMPOUNDS AND METHODS FOR THE TREATMENT OF PAIN” (THE UNIVERSITY OF QUEENSLAND, priority 2006, published 2010)
“Also recorded” adds a separate entry of the source. Where a SMILES comes first, the peptide text is derived from it. [ ]: non-standard residue; d: D form. ξ: configuration not given here. Dmt = Cc1cc(O)cc(C)c1C[C@H](N)C(=O)O; ξGly(decyl) = CCCCCCCCCCC(N)C(=O)O; ξGly(octyl) = CCCCCCCCC(N)C(=O)O; ξAoc(2) = CCCCCCC(N)C(=O)O

Assays:
μ-opioid receptor = target: T1, μ-opioid receptor (Homo sapiens, UniProt P35372); assay: Whole cell-based binding assay, displacement of 3H-DAMGO
T1 construct: SH-SY5Y cells endogenously expressing μ- and δ-opioid receptors; endogenous in cells; host or cells: SH-SY5Y cells
Protocol: Media was removed and cells were washed with PBS before pre-incubation in 300 μL of binding buffer. Binding studies were performed with 100 μL of appropriate concentrations of ^3H-labeled DAMGO (a selective μ-opioid receptor agonist) and 100 μL of competitor or blank in binding buffer at 37° C. for 60 min. Competition binding experiments were performed using […] of ^3H-labelled DAMGO in the absence or presence of increasing concentrations of unlabeled derivatised endomorphins or derivatised endomorphin analogs. A 1 μM excess of unlabelled DAMGO was used to determine non-specific binding. Following incubation, the cells were washed with PBS and recovered from culture plates using 500 μL of […] before transfer to scintillation vials. Liquid scintillation cocktail (Ultima Gold, Packard, Meriden, USA) was added to these vials for counting in a liquid scintillation analyser. Data are expressed as the mean±SEM of % specific binding of triplicate determinations performed on at least three independent plates of cells. Data were plotted using the one-site competition functions of the PRISM program (Graphpad Inc., San Diego, USA) (see FIGS. 1a, 1b and 7).

[1] = test system: μ- and δ-opioid receptors; assay: Cell based assay of cAMP inhibition in forskolin treated SH-SY5Y cells; details: for IC50: Efficacy SH-SY5Y cell line; for Inhibit c-AMP (%): SH-SY5Y cell line, normalised to the % of cAMP inhibition seen by native endomorphin-1
Protocol: SH-SY5Y cells endogenously expressing μ- and δ-opioid receptors were cultured (100 μl) in a 96 well-plate and incubated (usually overnight) until 80% confluent. Once cells were ready for assay, Endo-1, Endo-2 and derivatives/analogs were diluted in DMEM culture medium containing 30 μM forskolin. The diluted derivatised endomorphins or derivatised endomorphin analogs were then applied to separate wells for agonist studies and co-incubated for antagonist studies. Cells were incubated with derivatised endomorphins or derivatised endomorphin analogs at 37° C. for 30 minutes, medium was aspirated and cells were lysed using lysis buffer from a cAMP Biotrak EIA kit (Amersham, Buckinghamshire, UK). An anti-cAMP antibody was added to the lysate, and the mixture incubated at 4° C. for 2 hours followed by the addition of a cAMP peroxidase conjugate, and incubated at 4° C. for a further hour. A 3,3′5,5′-tetramethylbenzidine (TMB) substrate provided by the Biotrak EIA kit was then incubated with cell lysate for 1 hour and finally 1 […] was added to facilitate a colour change, which is proportional to the amount of cAMP captured. A cAMP standard curve from 0 to 3200 fmol was also generated concurrently. Plates were then read by a plate reader at 450 nm and compared back to the cAMP standard curve. All data are compared to the maximum cAMP response to forskolin and are represented as the mean+/−standard error of three experiments performed in triplicate. All data are plotted using PRISM program (GraphPad, San Diego, Calif.) (see FIGS. 2a and 2b).

Plasma stability assay = type: in vitro ADME; details: male, human, plasma at 37° C.
Protocol: To measure the enzymatic stability of endomorphin-1 analogs in plasma, blood was taken from a healthy volunteer and the blood was centrifuged at 1700 rpm for 30 minutes to remove blood cells. The plasma was placed into a water bath heated at 37° C. and Endomorphin-1 and analog was added to give final concentrations of 0.7 mg/mL. Samples were incubated for varying time periods between 0 and 180 minutes. 50 μL of sample was taken at each time-point and 75 μL of acetonitrile was added to quench any enzyme activity. The samples were then placed on ice and upon completion of the assay, all samples were centrifuged at 9000 rpm for 3 minutes to remove all precipitated plasma proteins. The amount of intact peptide remaining in the supernatent of each sample was determined using RP HPLC by measuring the area under the curve of the peak at the appropriate retention time compared to a standard curve of concentration for each peptide (see FIG. 8).

CCI-rats = assay: Pain relief in CCI-rat model of neuropathic pain (von Frey paw withdrawal thresholds); type: in vivo
[2] = test system: gastrointestinal motility; assay: Gut motility study (charcoal meal); type: in vivo, rat; details: rats
Protocol: Each dose of Compound 8, morphine and vehicle was administered to naïve rats as a 100 μL i.v. bolus injection via an indwelling cannula surgically implanted into the jugular vein at least 12 h prior to dose administration. Rats were anaesthetised with 3% isoflurane: 97% oxygen inhalational anaesthetic. A 1 cm incision was made on the right ventral side of the trachea. Using blunt dissection, the jugular vein was exposed and a small incision made to allow cannula insertion. The cannula was inserted into the vein, its integrity assessed, and tied into place using sterile sutures. The wound was sutured, the cannula was exteriorised at the back of the neck and secured using a metal spring. The rats were kept warm during surgical recovery. Animals were housed singly for the remainder of the experimentation period. Rats were inspected regularly from the time of surgery with respect to exploring behaviour, body weight and water intake. No adverse signs from the surgery were observed.
Charcoal meal was prepared by mixing 10% charcoal and 5% arabic gum in distilled, deionised water. Each rat received a single oral gavage of charcoal meal. Thirty minutes later the animal was euthanised using CO2 asphyxiation and the intestine was removed and measured. The distance from the pyloric sphincter to the caudal end of the charcoal and the total distance of the small intestine to the distal part of the ileum were measured in cm. Gastrointestinal motility was determined as the distance traveled by the charcoal relative to the total length of the small intestine, expressed as a percentage.
Each rat received a single bolus i.v. dose of Compound 8, morphine or vehicle. Animals received either vehicle (n=5), morphine at 1 mg/kg (n=3), 2 mg/kg (n=5), 10 mg/kg (n=5) and 30 mg/kg (n=2) or Compound 8 at 0.3 mg/kg (n=3), 1 mg/kg (n=5), 3 mg/kg (n=4), and 10 mg/kg (n=3). Thirty minutes after i.v. dosing an oral gavage of charcoal meal was administered under light (50%:50% CO2:O2) anaesthesia. Thirty minutes later the animal was euthanised via CO2 asphyxiation and the intestine was removed and the distance moved by the charcoal meal was measured.
The intestine was measured for distance of charcoal meal traveled in the small intestine and total length of small intestine. The % distance of charcoal transit was assessed relative to the total length of the small intestine. % inhibition of gastrointestinal motility by morphine or Compound 8 was calculated by the following equation: [(average % charcoal transit in vehicle rats)−(% distance charcoal transit)×100]/(average % charcoal transit in vehicle rats).

[3] = test system: homogenate of Caco-2 cells; assay: Enzymatic stability study in homogenized Caco-2 cells; type: in vitro ADME; details: Caco-2 cell line; graded by number of ♦ (up to 5), key not given
Protocol: Approximately 1×10^5 cells/mL concentration of cells were seeded onto the 96 well plate. […] The media was changed every other day. 21-28 days old cells were used for the experiments. the media was removed from the wells and each well washed with 100 μL 0.2% EDTA solution followed by washing three times with Hanks' balanced salt solution (HBSS) containing 25 mM Hepes (pH 7.4). Finally, 100 μL of this buffer was placed in each well and the plate cooled in ice. The monolayer of cells in each well was then disrupted by 2×1 second pulses with a Sonics Vibracell ultrasonic processor set at an amplitude of 30. The cell debris was then removed by centrifugation of the plate at 2000 rpm for 5 min. 80 μL cell homogenate supernatant of each well was then transferred to a clean 96 well plate, and 20 μL of HBSS-Hepes was added. Three of the wells' contents were set aside and assayed for total protein content using the Lowry assay. The compounds to be tested were dissolved in HBSS-Hepes buffer to a concentration of 200 μM.
This assay was performed at 37° C. […] The stability assay on each compound was conducted in triplicate and the concentrations averaged for each time point.

T1 sequence (P35372 whole entry): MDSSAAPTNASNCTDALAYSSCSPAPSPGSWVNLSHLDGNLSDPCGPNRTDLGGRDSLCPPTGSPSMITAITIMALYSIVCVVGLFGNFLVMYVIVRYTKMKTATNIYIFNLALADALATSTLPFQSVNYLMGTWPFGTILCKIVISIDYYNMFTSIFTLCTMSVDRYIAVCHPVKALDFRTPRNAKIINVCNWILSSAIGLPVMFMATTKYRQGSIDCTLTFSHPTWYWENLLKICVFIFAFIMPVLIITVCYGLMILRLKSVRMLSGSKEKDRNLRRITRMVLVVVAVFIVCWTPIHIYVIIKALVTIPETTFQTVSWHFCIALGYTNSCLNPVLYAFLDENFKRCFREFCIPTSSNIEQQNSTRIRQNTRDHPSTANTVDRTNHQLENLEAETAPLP

CCCCCCC(N)C(=O)N[C@@H](Cc1c(C)cc(O)cc1C)C(=O)N1CCC[C@H]1C(=O)N[C@@H](Cc1c[nH]c2ccccc12)C(=O)N[C@@H](Cc1ccccc1)C(N)=O (single isomer, unassigned) [Compound 7]
Ki (μ-opioid receptor): 0.071 nM
IC50 [1]: 0.189 nM
Inhibit c-AMP (%) [1]: 153%
half-life at 0.7 mg/mL (Plasma stability assay): 4.55 min

CCCCCCCCCCC(N)C(=O)N[C@@H](Cc1ccc(O)cc1)C(=O)N1CCC[C@H]1C(=O)N[C@@H](Cc1c[nH]c2ccccc12)C(=O)N[C@@H](Cc1ccccc1)C(N)=O (some centres unmarked) [Compound 2] (H-[ξGly(decyl)]YPWF-NH2)
Ki (μ-opioid receptor): 35.5 nM
Inhibit c-AMP (%) [1]: 89%

CCCCCCCCC(N)C(=O)N[C@@H](Cc1c(C)cc(O)cc1C)C(=O)N1CCC[C@H]1C(=O)N[C@@H](Cc1c[nH]c2ccccc12)C(=O)N[C@@H](Cc1ccccc1)C(N)=O (some centres unmarked) [Compound 8] (H-[ξGly(octyl)][Dmt]PWF-NH2)
Ki (μ-opioid receptor): 0.47 nM
IC50 [1]: 0.0634 nM
half-life at 0.7 mg/mL (Plasma stability assay): 41.4 min
antinociception / baseline PWT responses, in words (CCI-rats; contralateral hindpaw, CCI-rats, i.v., Endo1 1 mg/kg, Compound 8 0.3-3 mg/kg): did not significantly alter baseline PWT responses; also recorded: no significant antinociception in the contralateral hindpaw
baseline PWT responses, in words (CCI-rats; contralateral hindpaw, drug-naïve CCI-rats, i.v., Endo1 1.6 μmol/kg, Compound 8 1.2 μmol/kg): did not significantly alter baseline PWT responses
anti-nociceptive effect, in words (CCI-rats; contralateral hindpaw, s.c., 0.3-3 mg/kg, vs vehicle): did not produce a significant, dose-dependent anti-nociceptive effect; also recorded: did not produce dose-dependent anti-nociceptive pain relief
extent and duration of anti-allodynia compared with Endo1 (CCI-rats; drug-naïve CCI-rats, ipsilateral hindpaw, i.v.): significantly (p<0.05) larger extent and duration of anti-allodynia
anti-allodynic effect, in words (CCI-rats; ipsilateral hindpaw, CCI-rats, single bolus i.v. doses, vs vehicle): significant, dose-dependent anti-allodynic effect; also recorded: dose-dependent relief of tactile allodynia
anti-allodynic effect, in words (CCI-rats; ipsilateral hindpaw, CCI-rats, single bolus s.c. doses 0.1-10 mg/kg, vs vehicle): significant, dose-dependent anti-allodynic effect; also recorded: dose-dependent relief of tactile allodynia
dose-normalised area under the anti-allodynic response versus time curve (AUC), in words (CCI-rats; ipsilateral hindpaw, i.v., CCI-rats, over 3 h): significantly greater (p<0.05) than that of both Endo1 and vehicle
time of mean peak anti-allodynic response (CCI-rats; ipsilateral hindpaw, i.v., highest dose tested): ~0.5 h
mean duration of action (CCI-rats; ipsilateral hindpaw, i.v., highest dose tested (3 mg/kg)): > 3 h
mean duration of action (CCI-rats; ipsilateral hindpaw, i.v., lower doses (0.1 and 0.3 mg/kg)): 2 to 3 h
time of mean peak anti-allodynic response (CCI-rats; ipsilateral hindpaw, i.v., over doses tested): 0.5 to 1 h
time of mean peak anti-allodynic response (CCI-rats; ipsilateral hindpaw, s.c., 0.1-10 mg/kg): 0.5 to 1 h
time of mean peak anti-allodynic response (CCI-rats; ipsilateral hindpaw, s.c., highest dose tested): ~0.5 h
% inhibition of gastrointestinal transit, compared with i.v. morphine ([2]; i.v., 10 mg/kg): did not differ significantly (p>0.05)
average gradient of log dose vs. % inhibition of gastrointestinal motility curve ([2]; single bolus i.v. doses, FIG. 15): lower than the average gradient for the curve corresponding to morphine
inhibition of gastrointestinal motility, in words ([2]; single i.v. bolus, 0.3, 1, 3 and 10 mg/kg): inhibited gastrointestinal motility at all doses assessed

CCCCCCCCCCC(N)C(=O)N[C@@H](Cc1c(C)cc(O)cc1C)C(=O)N1CCC[C@H]1C(=O)N[C@@H](Cc1c[nH]c2ccccc12)C(=O)N[C@@H](Cc1ccccc1)C(N)=O (some centres unmarked) [Compound 9] (H-[ξGly(decyl)][Dmt]PWF-NH2)
Ki (μ-opioid receptor): 0.735 nM
IC50 [1]: 0.928 nM
half-life at 0.7 mg/mL (Plasma stability assay): 20.3 min

CCCCCCC(N)C=N[C@@H](Cc1ccc(O)cc1)C(=O)N1CCC[C@H]1C(=O)N[C@@H](Cc1c[nH]c2ccccc12)C(=O)N[C@@H](Cc1ccccc1)C(N)=O (some centres unmarked) [Compound 10]
Ki (μ-opioid receptor): 42.4 nM

CCCCCCC(NC(=O)[C@H](Cc1ccccc1)NC(=O)[C@H](Cc1c[nH]c2ccccc12)NC(=O)[C@@H]1CCCN1C(=O)[C@@H](N)Cc1ccc(O)cc1)C(N)=O (some centres unmarked) [Compound 19] (H-YPWF[ξAoc(2)]-NH2)
Enzymatic stability 2 h [3]: ♦

CN1CC[C@]23c4c5ccc(O)c4O[C@H]2[C@@H](O)C=C[C@H]3[C@H]1C5 [morphine, reference compound]
inhibition of gastrointestinal motility, in words ([2]; single i.v. bolus, 1 and 2 mg/kg): did not significantly (p>0.05) inhibit gastrointestinal motility
inhibition of gastrointestinal transit, in words ([2]; single i.v. bolus, 10 and 30 mg/kg): significant (p<0.05) inhibition of gastrointestinal transit
